Experiment: xn = mol fraction of the nth substance listed

CN(C)C=O + CC(C)O
viscosity [mPa·s], 101 kPa
Conditions | 298.15 K | 303.15 K | 308.15 K | 313.15 K | 318.15 K | 323.15 K
x1 = 0.0879 | 1.65 | 1.44 | 1.3 | 1.14 | – | –
x1 = 0.0995 | – | 1.385 | 1.237 | 1.096 | 0.9913 | 0.88
x1 = 0.1606 | 1.46 | 1.28 | 1.16 | 1.03 | – | –
x1 = 0.1992 | – | 1.166 | 1.057 | 0.9438 | 0.8597 | 0.778
x1 = 0.2389 | 1.34 | 1.18 | 1.08 | 0.95 | – | –
x1 = 0.3011 | – | 1.034 | 0.9443 | 0.8524 | 0.7903 | 0.7214
x1 = 0.3433 | 1.24 | 1.1 | 1.01 | 0.9 | – | –
x1 = 0.4009 | – | 0.9507 | 0.8752 | 0.8075 | 0.7462 | 0.6851
x1 = 0.44 | 1.16 | 1.05 | 0.96 | 0.87 | – | –
x1 = 0.4512 | 1.297 | – | – | – | – | –
x1 = 0.4737 | – | 0.9177 | 0.8467 | 0.7863 | 0.7252 | 0.6742
x1 = 0.5597 | 1.07 | 0.98 | 0.9 | 0.82 | – | –
x1 = 0.5987 | – | 0.8585 | 0.7964 | 0.7362 | 0.6938 | 0.6453
x1 = 0.6504 | 1.01 | 0.94 | 0.86 | 0.8 | – | –
x1 = 0.7011 | – | 0.8282 | 0.771 | 0.7187 | 0.6776 | 0.6312
x1 = 0.735 | 0.96 | 0.89 | 0.83 | 0.76 | – | –
x1 = 0.7991 | – | 0.796 | 0.7476 | 0.6985 | 0.6578 | 0.6196
x1 = 0.8522 | 0.89 | 0.83 | 0.78 | 0.72 | – | –
x1 = 0.8995 | – | 0.7844 | 0.7374 | 0.6874 | 0.6507 | 0.614
x1 = 0.9422 | 0.84 | 0.79 | 0.74 | 0.69 | – | –

ClC(Cl)=C(Cl)Cl + CC(C)O
Conditions | viscosity [mPa·s]
298.15 K, 101.3 kPa, x1 = 0.0763 | 1.855
298.15 K, 101.3 kPa, x1 = 0.6349 | 1.025
303.15 K, 101.33 kPa, x1 = 0.1028 | 1.473
303.15 K, 101.33 kPa, x1 = 0.2072 | 1.251
303.15 K, 101.33 kPa, x1 = 0.307 | 1.102
303.15 K, 101.33 kPa, x1 = 0.3926 | 1.007
303.15 K, 101.33 kPa, x1 = 0.5027 | 0.92
303.15 K, 101.33 kPa, x1 = 0.6105 | 0.864
303.15 K, 101.33 kPa, x1 = 0.6982 | 0.838
303.15 K, 101.33 kPa, x1 = 0.7882 | 0.823
303.15 K, 101.33 kPa, x1 = 0.8976 | 0.814

O=[N+]([O-])c1ccccc1 + CCC(C)=O
303.15 K, 101 kPa
Conditions | viscosity [mPa·s]
x2 = 0.1487 | 1.32
x2 = 0.3244 | 1.039
x2 = 0.4126 | 0.925
x2 = 0.4992 | 0.82
x2 = 0.7145 | 0.607
x2 = 0.78 | 0.55

CC(C)CCl + CCC(C)O
viscosity [mPa·s], 101.33 kPa
Conditions | x1 = 0.1077 | x1 = 0.2064 | x1 = 0.3079 | x1 = 0.4066 | x1 = 0.5036 | x1 = 0.648 | x1 = 0.7018 | x1 = 0.805 | x1 = 0.8972
298.15 K | 1.946 | 1.381 | 1.046 | 0.8335 | 0.7002 | 0.5685 | 0.5343 | 0.4815 | 0.4478
313.15 K | 1.254 | 0.9644 | 0.7565 | 0.6299 | 0.5461 | 0.4591 | 0.4357 | 0.4015 | 0.3778

ClC(Cl)=C(Cl)Cl + CCC(C)O
viscosity [mPa·s]
Conditions | x1 = 0.1024 | x1 = 0.213 | x1 = 0.3172 | x1 = 0.4016 | x1 = 0.5142 | x1 = 0.6125 | x1 = 0.7018 | x1 = 0.7817 | x1 = 0.8032 | x1 = 0.9108
298.15 K, 101.3 kPa | – | – | – | – | – | – | – | 1.005 | – | –
303.15 K, 101.33 kPa | 1.918 | 1.508 | 1.263 | 1.127 | 1.005 | 0.93 | 0.884 | – | 0.852 | 0.822

O=[N+]([O-])c1ccccc1 + CCC(C)O
viscosity [mPa·s], 100 kPa
Conditions | x1 = 0.081 | x1 = 0.16 | x1 = 0.24 | x1 = 0.35 | x1 = 0.4949 | x1 = 0.56 | x1 = 0.65 | x1 = 0.74 | x1 = 0.8205 | x1 = 0.9399
293.15 K | 3.138 | 2.694 | 2.349 | 2.041 | 1.854 | 1.838 | 1.859 | 1.915 | 1.975 | 2.078
298.15 K | 2.591 | 2.246 | 1.983 | 1.74 | 1.619 | 1.612 | 1.647 | 1.719 | 1.78 | 1.861
303.15 K | 2.232 | 1.989 | 1.801 | 1.632 | 1.528 | 1.521 | 1.539 | 1.58 | 1.638 | 1.708
308.15 K | 1.905 | 1.731 | 1.598 | 1.476 | 1.408 | 1.405 | 1.422 | 1.459 | 1.498 | 1.577
313.15 K | 1.627 | 1.489 | 1.384 | 1.289 | 1.248 | 1.252 | 1.275 | 1.32 | 1.379 | 1.457
318.15 K | 1.411 | 1.309 | 1.233 | 1.169 | 1.147 | 1.155 | 1.18 | 1.224 | 1.274 | 1.351
323.15 K | 1.233 | 1.159 | 1.104 | 1.058 | 1.044 | 1.055 | 1.081 | 1.122 | 1.168 | 1.253

CCCCCCCCCCCCCC + CCCC(C)O
viscosity [mPa·s], 101.33 kPa
Conditions | x1 = 0.0999 | x1 = 0.2002 | x1 = 0.3001 | x1 = 0.3987 | x1 = 0.5009 | x1 = 0.6004 | x1 = 0.6996 | x1 = 0.8014 | x1 = 0.9002
293.15 K | 2.923 | 2.557 | 2.314 | 2.191 | 2.117 | 2.1 | 2.114 | 2.141 | 2.177
303.15 K | 2.381 | 2.111 | 1.928 | 1.823 | 1.752 | 1.741 | 1.748 | 1.76 | 1.787
313.15 K | 1.742 | 1.58 | 1.476 | 1.41 | 1.391 | 1.392 | 1.41 | 1.441 | 1.472
323.15 K | 1.362 | 1.266 | 1.192 | 1.152 | 1.148 | 1.153 | 1.171 | 1.21 | 1.24

O=[N+]([O-])c1ccccc1 + CCCC(C)O
viscosity [mPa·s], 100 kPa
Conditions | x1 = 0.081 | x1 = 0.1601 | x1 = 0.24 | x1 = 0.35 | x1 = 0.4401 | x1 = 0.56 | x1 = 0.6503 | x1 = 0.7402 | x1 = 0.8504 | x1 = 0.9404
293.15 K | 3.323 | 2.827 | 2.444 | 2.095 | 1.931 | 1.863 | 1.867 | 1.914 | 1.999 | 2.054
298.15 K | 2.753 | 2.364 | 2.068 | 1.809 | 1.697 | 1.67 | 1.684 | 1.738 | 1.821 | 1.878
303.15 K | 2.317 | 2.016 | 1.794 | 1.598 | 1.517 | 1.503 | 1.523 | 1.579 | 1.66 | 1.718
308.15 K | 1.993 | 1.776 | 1.608 | 1.454 | 1.385 | 1.36 | 1.377 | 1.421 | 1.497 | 1.568
313.15 K | 1.711 | 1.545 | 1.417 | 1.301 | 1.249 | 1.239 | 1.259 | 1.302 | 1.378 | 1.451
318.15 K | 1.497 | 1.375 | 1.28 | 1.188 | 1.148 | 1.135 | 1.15 | 1.188 | 1.26 | 1.338
323.15 K | 1.311 | 1.227 | 1.159 | 1.089 | 1.055 | 1.044 | 1.057 | 1.091 | 1.16 | 1.238

Reference: the CheMixHub viscosity set
